# Experimental data from patent US20180066322A1, “BIOMARKERS ASSOCIATED WITH CDK INHIBITORS” (NOVARTIS AG, priority 2012, published 2018).
# “Also recorded” adds a separate entry of the source.
# Assays:
# [1] = system: DLBCL models harboring mutant CCND3 (PEST-domain mutation); experiment: Cell viability by Cell Titer Glo (cellular ATP), 72 hours, cells containing mutant CCND3; type: cell-based, human; details: 10 μM to 1.5 nM
# Protocol: Using the pharmacologic characterization of the COLE cell lines, cell lines containing CCND3 mutations were tested for CDKi sensitivity. DOHH-2, NU-DHL-1, SEM, SU-DHL-4, SU-DHL-6, and SU-DHL-10 cells were purchased from Deutsche Sammlung von Mikroorganismen and Zellkulturen GmbH (DSMZ). DB and Pfeiffer cells were purchased from American Type Culture Collection (ATCC). A4/FUK cells were purchased from Health Science Research Resources Bank (HSRRB). These cells were cultured in RPMI 1640 medium (ATCC) supplemented with either 10% (A4/FUK, DB, DOHH-2, Pfeiffer, and SEM cells) or 20% (NU-DHL-1, SU-DHL-4, SU-DHL-6, and SU-DHL-10) fetal bovine serum (Gibco) and incubated at 37° C./5% CO2. For screening, cells were seeded in 80 μl of medium in 96-well plates (Costar #3904) at 10,000 (DB, DOHH-2, NU-DHL-1, SEM, SU-DHL-4, SU-DHL-6, and SU-DHL-10), 15,000 (A4/FUK) or 20,000 (Pfeiffer) cell densities and incubated overnight prior to compound addition. A4/FUK, DOHH-2, NU-DHL-1, SU-DHL-10, DB, Pfeiffer, SU-DHL-4 and SU-DHL-6 cells are diffuse large B cell lymphoma (DLBCL) cell lines. SEM cells are acute lymphoblastic B cell leukemia cells.
# (§1) Compound stock (5×) was freshly prepared in the appropriate culture medium, and manually added to the plates by electronic multichannel pipette. In a minimum of three replicate wells, the number & viability of cells at the time of compound addition, as well as single agent effects after 72 hours, was assessed by quantification of cellular ATP levels via Cell Titer Glo (Promega, Madison, Wis.) according to the manufacturer's protocol. Day 0 subtracted-EC^50s were calculated using standard four-parametric curve fitting (XLFit, model 205).
# CDKi(1)-CDKi(3) were synthesized at Novartis Pharma AG, and compound stocks were prepared in DMSO at a final concentration of 10 mM. Working stocks were serially diluted in the appropriate cell culture medium in 3-fold increments to achieve final assay concentrations ranging from 10 μM to 1.5 nM.
# [2] = system: DLBCL models harboring wild-type CCND3; experiment: Cell viability by Cell Titer Glo (cellular ATP), 72 hours, cells containing wild type CCND3; type: cell-based, human; details: 10 μM to 1.5 nM
# Protocol: Using the pharmacologic characterization of the COLE cell lines, cell lines containing CCND3 mutations were tested for CDKi sensitivity. DOHH-2, NU-DHL-1, SEM, SU-DHL-4, SU-DHL-6, and SU-DHL-10 cells were purchased from Deutsche Sammlung von Mikroorganismen and Zellkulturen GmbH (DSMZ). DB and Pfeiffer cells were purchased from American Type Culture Collection (ATCC). A4/FUK cells were purchased from Health Science Research Resources Bank (HSRRB). These cells were cultured in RPMI 1640 medium (ATCC) supplemented with either 10% (A4/FUK, DB, DOHH-2, Pfeiffer, and SEM cells) or 20% (NU-DHL-1, SU-DHL-4, SU-DHL-6, and SU-DHL-10) fetal bovine serum (Gibco) and incubated at 37° C./5% CO2. […]
# as §1, with “205). […]” for “205).”
SMILES,sensitivity / cell viability of cells containing mutant CCND3 [1],sensitivity / cell viability of cells containing wild type CCND3 [2]
CN(C)C(=O)c1cc2cnc(Nc3ccc(N4CCNCC4)cn3)nc2n1C1CCCC1 [CDKi(1)],increased sensitivity,
"CC(=O)c1c(C)c2cnc(Nc3ccc(N4CCNCC4)cn3)nc2n(C2CCCC2)c1=O [CDKi(2), PD0332991, reference compound]",more sensitive; also recorded: sensitivity,
CS(=O)(=O)N1CCC(NC(=O)c2[nH]ncc2NC(=O)c2c(Cl)cccc2Cl)CC1 [CDKi(3)],more sensitive to the pan-CDK inhibitor than to the specific CDK 4/6 inhibitors; also recorded: insensitivity,more sensitive to the pan-CDK inhibitor than to the specific CDK 4/6 inhibitors; also recorded: insensitivity
